Measured values from US8790724B2, “Formulation of dual cycloxygenase (COX) and lipoxygenase (LOX) inhibitors for mammal skin care” (Unigen, Inc., priority 2003, dated 2014).
Read-outs that look alike come from different tables or passages of the source.

Assays:
[1] = biological target: T1, recombinant ovine COX-1 (Ovis aries, UniProt P05979); test: Inhibition of COX-1 peroxidase activity, TMPD assay (Example 3); assay type: biochemical
T1 sequence (P05979 25-600): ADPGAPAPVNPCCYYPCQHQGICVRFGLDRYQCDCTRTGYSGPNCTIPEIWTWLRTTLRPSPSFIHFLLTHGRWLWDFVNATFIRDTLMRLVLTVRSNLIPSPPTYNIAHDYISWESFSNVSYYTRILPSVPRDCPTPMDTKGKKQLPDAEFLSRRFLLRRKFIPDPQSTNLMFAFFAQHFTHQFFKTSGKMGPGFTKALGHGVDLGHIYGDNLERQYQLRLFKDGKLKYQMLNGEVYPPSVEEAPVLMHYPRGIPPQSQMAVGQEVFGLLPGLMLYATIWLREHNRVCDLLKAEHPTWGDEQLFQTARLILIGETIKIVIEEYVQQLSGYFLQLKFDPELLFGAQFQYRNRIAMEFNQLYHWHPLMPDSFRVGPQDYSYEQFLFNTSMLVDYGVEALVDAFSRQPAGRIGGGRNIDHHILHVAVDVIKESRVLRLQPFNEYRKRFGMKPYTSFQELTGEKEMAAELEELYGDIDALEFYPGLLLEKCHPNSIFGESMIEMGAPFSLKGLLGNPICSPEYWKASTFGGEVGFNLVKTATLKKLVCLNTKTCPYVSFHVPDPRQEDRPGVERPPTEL
Excerpt: (§1) In order to screen for compounds that inhibited the COX-1 and COX-2 activities, a high throughput, in vitro assay was developed that utilized the inhibition of the peroxidase activity of both enzymes. […] Briefly, the composition or compound being examined was titrated against a fixed amount of COX-1 and COX-2 enzymes. A cleavable, peroxide chromophore was included in the assay to visualize the peroxidase activity of each enzyme in presence of arachidonic acid as a cofactor. Typically, assays were performed in a 96-well format. Each inhibitor, taken from a 10 mg/mL stock solution in 100% DMSO, was tested in triplicate at room temperature using the following range of concentrations: 0, 0.1, 1, 5, 10, 20, 50, 100, and 500 μg/mL. […] The components were mixed for 10 seconds on a rotating platform, followed by the addition of 20 μL of 2 mM N,N,N′N′-tetramethyl-p-phenylenediamine dihydrochloride (TMPD) and 20 μL of 1.1 mM arachidonic acid to initiate the reaction. The plate was shaken for 10 seconds and then incubated 5 minutes before reading the absorbance at 570 nm. The inhibitor concentration vs. % inhibition was plotted and the IC50 determined by taking the half-maximal point along the isotherm and intersecting the concentration on the X-axis. The IC50 was then normalized to the number of enzyme units in the assay.

[2] = biological target: T2, recombinant ovine COX-2 (Ovis aries, UniProt P79208); test: Inhibition of COX-2 peroxidase activity, TMPD assay (Example 3); assay type: biochemical; settings: IC50 normalized to the number of enzyme units
T2 construct: purchased Cayman
T2 sequence (P79208 17-603): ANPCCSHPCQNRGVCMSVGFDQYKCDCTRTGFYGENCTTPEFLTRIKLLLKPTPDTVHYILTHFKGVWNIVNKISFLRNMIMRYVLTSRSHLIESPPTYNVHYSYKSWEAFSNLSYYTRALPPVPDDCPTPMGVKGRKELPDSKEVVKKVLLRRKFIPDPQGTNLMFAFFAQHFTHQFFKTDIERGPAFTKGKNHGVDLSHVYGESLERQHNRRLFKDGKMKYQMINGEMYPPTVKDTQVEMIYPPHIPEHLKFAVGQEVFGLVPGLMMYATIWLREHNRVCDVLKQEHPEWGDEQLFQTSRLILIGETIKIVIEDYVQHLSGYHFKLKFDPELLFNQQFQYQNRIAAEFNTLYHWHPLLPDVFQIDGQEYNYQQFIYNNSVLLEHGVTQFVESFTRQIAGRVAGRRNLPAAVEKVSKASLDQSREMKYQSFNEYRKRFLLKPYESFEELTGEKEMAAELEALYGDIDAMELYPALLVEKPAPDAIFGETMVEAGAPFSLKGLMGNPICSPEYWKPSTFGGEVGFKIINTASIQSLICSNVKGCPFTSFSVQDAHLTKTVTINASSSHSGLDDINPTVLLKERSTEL
Excerpt: as §1

[3] = system: prostaglandin endoperoxide synthase; settings: Kalkbrenner et al. (1992); cited from earlier work
[4] = system: COX-1; settings: cited from earlier work
[5] = system: cox-2 gene transcription in human colon cancer DLD-1 cells; settings: Mutoh et al. (2000), read-out: IC50 suppression of cox-2 gene transcription; cited from earlier work
[6] = system: carrageenin-induced mouse paw edema; settings: oral administration, 100 mg/kg; Min et al. (1999); cited from earlier work
[7] = system: LTB4 (5-LOX pathway) in HT-29 cells; test: Competitive ELISA for LTB4 in HT-29 cells; assay type: cell-based; settings: Homo sapiens, 3 μg/mL, 48 hrs, read-out: inhibition of LTB4 production in HT-29 cells
Experimental: A Soliprin™ formulation (80:20) was prepared as described in Example 9. (See also Example 14 of U.S. patent application Ser. […] The sample was titrated in tissue culture media containing THP-1 or HT-29 cells; monocyte cell lines that express COX-1, COX-2 and 5-LOX. A competitive ELISA for Leukotriene B4 (LTB4; Neogen, Inc., Cat #406110) was used to assess the effect of this Soliprin™ formulation on newly synthesized levels of LTB4 present in each cell line as a measure Soliprin™'s inhibitory effect on the 5-LOX pathway. The assay was performed in duplicate by adding 160,000 to 180,000 cells per well in 6-well plates. […] Each treated cell line was then harvested by centrifugation and disrupted by gentle dounce homogenization lysis in physiological buffers.

Question: Which “IC50 for COX-1” value ([1]; peroxidase activity, IC50 normalized to the number of enzyme units) does the source give for O=C(O)[C@H]1O[C@@H](Oc2cc3oc(-c4ccccc4)cc(=O)c3c(O)c2O)[C@H](O)[C@@H](O)[C@@H]1O [Baicalin] here?
Answer: 0.44 μg/mL/unit of enzyme

Question: And the “IC50 for COX-2” value [2]?
Answer: 0.28 μg/mL/unit

Question: For Oc1cc(O)c2c(c1)OC(c1ccc(O)c(O)c1)C(O)C2 (stereo not drawn) [Catechin], which IC50 [3] is on record?
Answer: 40 µM

Question: What about the IC50 ([4]; isolated from the bark of Ceiba pentandra, Noreen et al. (1998) J. Nat. Prod. 61:8-12) of the same compound?
Answer: 80 µM

Question: And the IC50 [5]?
Answer: 415 µM

Question: For Oc1ccc([C@H]2Oc3cc(O)cc(O)c3C[C@H]2O)cc1 [Epiafzelechin], which IC50 ([4]; isolated from Celastrus orbiculatus, Min et al. (1999)) is on record?
Answer: 15 µM

Question: What about the “anti-inflammatory activity against carrageenin-induced mouse paw edema” value [6] of the same compound?
Answer: demonstrated anti-inflammatory activity

Question: For CC(C)Cc1ccc(C(C)C(=O)O)cc1 (stereo not drawn) [Ibuprofen, ibuprofen], which inhibition at 3 µg/mL [7] is on record?
Answer: 20%

Question: With COc1c(O)cc(O)c2c(=O)cc(-c3ccccc3)oc12 [Wogonin] as the compound, how does the “Inhibition of COX-1” value ([1]; purified Free-B-Ring flavonoids, concentration not given) read?
Answer: 16%
